Test results as given in article PMC4551912, “Synthetic biosensors for precise gene control and real-time monitoring of metabolites” (Nucleic Acids Research, 2015).

Experiments:
[1] = target: TetR (Escherichia coli, UniProt P04483); type: cell-based; details: high-copy plasmid, LB, 37°C; extracellular inducer; induction (derepression); lumped parameter of uptake, DNA binding and Kd, not a pure affinity; read-out: Half maximal parameter
[2] = target: T1, CdaR (Escherichia coli, UniProt P37047); type: cell-based; details: high-copy plasmid, LB, 37°C; extracellular inducer; activation; lumped parameter of uptake, DNA binding and Kd, not a pure affinity; read-out: Half maximal parameter
T1 sequence (P37047 1-385): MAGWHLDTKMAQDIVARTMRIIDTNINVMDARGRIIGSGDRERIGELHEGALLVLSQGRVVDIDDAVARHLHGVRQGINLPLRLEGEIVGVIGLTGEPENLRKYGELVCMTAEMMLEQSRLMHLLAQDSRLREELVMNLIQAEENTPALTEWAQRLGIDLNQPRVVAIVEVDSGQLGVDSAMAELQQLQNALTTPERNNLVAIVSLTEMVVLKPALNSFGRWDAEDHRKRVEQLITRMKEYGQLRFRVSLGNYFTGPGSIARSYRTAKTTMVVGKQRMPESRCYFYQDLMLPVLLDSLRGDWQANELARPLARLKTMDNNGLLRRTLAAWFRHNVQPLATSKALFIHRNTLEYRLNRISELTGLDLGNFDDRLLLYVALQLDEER

Chain of TetR (P04483 whole entry, looked up): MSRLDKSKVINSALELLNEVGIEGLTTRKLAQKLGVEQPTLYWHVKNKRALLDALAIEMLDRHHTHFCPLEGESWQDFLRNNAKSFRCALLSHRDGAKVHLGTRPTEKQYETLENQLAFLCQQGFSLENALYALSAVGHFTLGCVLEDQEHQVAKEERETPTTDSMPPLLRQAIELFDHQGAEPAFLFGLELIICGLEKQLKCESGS

EC50 [2]	Structure (SMILES)	EC50 [1]
	Cc1c2c(c(O)c3c(O)cccc13)C(=O)[C@]1(O)C(=O)C(C(N)=O)=C(O)[C@@H](N(C)C)[C@@H]1C2 [anhydrotetracycline]	0.081 ± 0.001 µM
490 ± 60 µM	O=C(O)[C@@H](O)[C@@H](O)[C@H](O)[C@@H](O)C(=O)O [glucarate]	
